Assay results as given in patent US20110217293A1, “Uses of morelloflavone” (priority 2008, published 2011).
“Also recorded” adds a separate entry of the source.

Legend:
apoE−/− mice = experiment: Mouse carotid artery injury assay (morphometry, TUNEL, Ki-67, p-ERK staining); format: in vivo; settings: for External elastic lamina area / Internal elastic lamina area / Luminal area / Medial area / Neointimal area: 0.15% diet
Protocol: The carotid artery injury assay was performed as described by Kuhel (16). Male apoE−/− mice were obtained from Jackson Laboratory (Bar Harbor, Me.) and maintained on a 12 hour light/dark cycle. All animal experimentation protocols were performed under institutional guidelines of animal welfare, in accordance with NIH guidelines. Mice were fed either normal rodent chow diet (5001, LabDiet) (n=10) or normal chow diet containing 0.15% morelloflavone (w/w) (n=9). This diet corresponded to 200 mg/kg morelloflavone if a 30 gm mouse consumes 4 grams of chow. Mice were placed on these diets for 7 days before they underwent carotid artery denudation by the insertion of an epoxy resin (Epon) probe as described (16).
Briefly, the entire length of the left carotid artery was exposed and the distal bifurcation of the carotid artery was looped proximally and ligated distally with a 7-0 suture. A transverse arteriotomy was made between the 7-0 silk sutures and the resin probe was inserted, advanced toward the aortic arch, and withdrawn 5 times. The probe was then removed, the proximal 7-0 suture was ligated, a 6-0 suture was secured, and the incision was closed with 5-0 sterile surgical gut. After surgery, mice were maintained on these diets 9 for 14 days before they were euthanized. After blood was sampled, the arteries of these mice were perfusion-fixed with 10% buffered formalin (pH 7.0) solution at a constant pressure of 100 mm Hg. The entire neck from each mouse was dissected, fixed further in 10% buffered formalin, decalcified, and then embedded in paraffin. Identical whole neck cross sections of […] were made from the distal side of the neck beginning at the point of the distal 7-0 ligature. Whole neck sections were used to evaluate both the injured and the uninjured control vessels on the same section. For each mouse, the 4 levels of serial sections were taken at […] intervals. These sections were stained by Verhoeff-van Gieson (VVG) staining and subjected to morphometric analyses. Images were digitized and captured using a Sony video connected to a personal computer.
Measurements were performed at a magnification of 200 using a Scion Image analysis computer program (Frederick, Md.). Data were obtained from the first 2 levels where endothelial denudation occurred. For each artery, the luminal area, area inside the internal elastic lamina (IELA), and the area encircled by external elastic lamina-IELA were measured. The intimal area (IA) was calculated as the IELA minus luminal area. For the determination of serum morelloflavone levels, animal sera were first digested by proteinase K in the presence of 0.01% SDS. Morelloflavone was then extracted into ethyl acetate and lyophilized.
For the analyses of intimal cell proliferation, apopotosis and ERK activation, Ki-67, Terminal deoxynucleotidyl transferase (TdT)-deoxyuridine nick-end labeling (TUNEL), and p-ERK staining, respectively, were performed. Ki-67 was detected using a monoclonal rabbit antibody (Clone TEC-3, DAKO North America, Inc., Carpinteria, Calif.) as described (8-9). Terminal deoxynucleotidyl transferase (TdT)-deoxyuridine nick-end labeling (TUNEL) staining (10) was performed using a FragEL™ DNA fragmentation detection kit (Oncogene Research Products, Boston, Mass.) according to the manufacturer's instructions. The Ki-67 and apoptotic indices, defined as the number of cells with DAB-positive nuclei divided by the total number of cells counted and expressed as a percentage, were then calculated. All cells within the intima were counted. Values are expressed as means±SD. Comparisons of parameters between two groups were made with Student's t test. When appropriate, ANOVA was performed to compare multiple groups. A value of P<0.05 was considered statistically significant.

Ldlr−/−Apobec1−/− mice = experiment: Immunohistochemical and TUNEL analysis of atherosclerotic lesions; format: in vivo, mouse; settings: aortic root, 8 months diet
From the text: For the cross sectional analyses of atherosclerosis, the roots of the ascending aortae were embedded in OCT compound (Tissue-Tek®, Sakura-Fineteck U.S.A., Torrance, Calif.). The 5-μm cryostat sections were obtained at the levels of aortic valve leaflets and subjected to hematoxylin and eosin (H&E), TUNEL, and other immunohistochemical staining as described below. In both methods of atherosclerosis quantification, the images of aortae were digitally captured and stored in the TIFF format, using the ScanScope slide scanning system (Nikon, Melville, N.Y.). The quantification of the atherosclerotic area was performed by Image J software (NIH, Bethesda, Md.) and expressed at lesion areas (μm^2).
In order to identify within the intima vascular smooth muscle cells, macrophages, and proliferating cells, the tissue was stained using anti-smooth muscle cell alpha-actin (SMA) (catalog no. ab5694, Abcam, Cambridge, Mass.), anti-macrophage surface glycoproteins (F4/80, catalog no. ab6640, Abcam), and anti-Ki67 (Clone TEC-3, DAKO, Carpinteria, Calif.) antibodies, respectively, as described previously. Values are expressed as means±SD. Comparisons of parameters between two groups were made with the two-tailed Student's t test. When appropriate, ANOVA was performed to compare multiple groups. A value of P<0.05 was considered statistically significant.

sPLA2-V = target: T1, sPLA2-V (Homo sapiens, UniProt P39877); experiment: sPLA2 enzyme activity assay, Group V; format: biochemical; settings: recombinant human sPLA2-V, data not shown
T1 sequence (P39877 21-138): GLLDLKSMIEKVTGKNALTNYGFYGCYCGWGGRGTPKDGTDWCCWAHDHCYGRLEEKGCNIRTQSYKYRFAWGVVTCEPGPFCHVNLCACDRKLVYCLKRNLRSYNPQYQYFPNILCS
Protocol: Recombinant human sPLA2 isoforms, Group IB, Group IIA, Group V, and Lp-PLA2 were obtained from R&D Systems and Cayman Chemical Co. sPLA2 enzyme activities in the presence of various concentrations of morelloflavone or other inhibitors were determined using a commercially available assay system according to the manufacturer's instructions (Cayman Chemical Co.). Thioetheramide-1-palmitylthio-2-palmitoylamido-1,2-dideoxy-sn-glycero-3-phosphorylcholine (T-PC) and methyl arachidonyl fluorophosphonate (MAFP) were used as inhibitors of sPLA2 (IB, IIA, and V) and Lp-PLA2, respectively, per manufacturers' instructions.

## O=C1c2c(O)cc(O)cc2O[C@H](c2ccc(O)cc2)[C@H]1c1c(O)cc(O)c2c(=O)cc(-c3ccc(O)c(O)c3)oc12 [morelloflavone, 5,7, 4′, 5″, 7″, 3″, 4″-heptahydroxy-[3,8″]-flavonylflavanone]
apoE−/− mice; Injured carotid artery
  External elastic lamina area: 103000 ± 14300 µm²
  Internal elastic lamina area: 70000 ± 11100 µm²
  Luminal area: 62100 ± 10700 µm²
  Medial area: 39300 ± 15100 µm²
  Neointimal area: 7860 ± 4050 µm²
apoE−/− mice; Injured carotid artery, listed as Morelloflavone
  Neointimal area: 7860 ± 4050 µm²
apoE−/− mice; Uninjured carotid artery
  External elastic lamina area: 93100 ± 9140 µm²
  Internal elastic lamina area: 62900 ± 5900 µm²
  Luminal area: 62300 ± 5900 µm²
  Medial area: 30200 ± 14400 µm²
apoE−/− mice; neointima of injured carotid artery
  Ki-67 indices: 0.17±0.41%
apoE−/− mice; neointima of injured carotid artery, index expressed as a percentage
  TUNEL indices: 16.0±4.6
apoE−/− mice; one out of 8 sections of treated animals
  sections with nuclear p-ERK signals in the neointima: 12.5%
apoE−/− mice; oral morelloflavone
  effect on ERK activation (p-ERK positivity) in the neointima: decreases ERK activation; also recorded: reduced p-ERK positivity; also recorded: less ERK activation
apoE−/− mice; oral, 0.15% w/w in chow, 7 days before and 14 days after injury, apoE−/− mice
  effect on injury-induced neointimal formation (restenosis): significantly less neointimal formation; also recorded: reduced neointimal formation; also recorded: significantly blocked injury-induced neointimal formation; also recorded: blocks restenosis
Ldlr−/−Apobec1−/− mice
  Ki-67-positive cells in atherosclerotic lesions: 0.0011±0.0003 cells/μm^2
  Ki-67 index in atherosclerotic lesions: 1.6±0.5%
  SMA-positive cells (SMA index) in atherosclerotic lesions: 0.0026±0.0007 cells/μm^2
  SMA-positive cells (VSMCs) in atherosclerotic lesions: 15.4±3.5 cells/section
  TUNEL index in atherosclerotic lesions: 0.4±0.2%
  TUNEL-positive cells in atherosclerotic lesions: 0.00025±0.00008 cells/μm^2
  macrophages (F4/80-positive cells) in the lesions: 32.3±8.0 cells/section
  macrophages (F4/80 index) in the lesions: 0.0042±0.0018 cells/μm^2
  reduction of SMA-positive cells per section vs control: 43%
  reduction of SMA-positive cells per μm^2 vs control: 32%
sPLA2-V
  IC50: > 10 µM
